Source: article PMC12655529, “Serendipitous Hinge Modulation Hypothetically Reprograms Caerin 1.1-LC Antibacterial Mechanism and Gram-Negative Selectivity” (Pharmaceutics, 2025)
Ends that are not written are not given here.

Columns and labels:
horse red blood cells = test: Haemolysis assay; assay type: cell-based; details: concentration inducing 10% haemolysis of horse erythrocytes; 4% (v/v) in PBS, 2 h, 37 °C, absorbance 570 nm; no haemolysis at maximum testing concentration (128 μM) recorded as 256 μM
Experimental: The peptide cytotoxicity against mammalian erythrocytes was evaluated by haemolysis assay on horse red blood cells (E&O Laboratories Ltd., Falkirk, UK). Fresh horse blood was washed three times with PBS and resuspended to a final concentration of 4% (v/v) in PBS. The diluted blood suspension was then mixed with peptide solutions at varying concentrations and incubated for 2 h at 37 °C. Red blood cell suspensions treated with 0.1% Triton X-100 and PBS were used as controls. The Triton X-100-treated suspension was the positive control (for 100% haemolysis), while the PBS-treated suspension was the blank control. Following incubation, the mixtures were centrifuged at 1000× g for 10 min to separate erythrocytes from the supernatant. The absorbance of the supernatants was detected at 570 nm. The percentage haemolysis was calculated by following the equationPercentage Haemolysis = (AbsSample − AbsBlank)/(AbsPositive − AbsBlank) × 100%

MRSA NCTC 12493 = assay type: cell-based, Staphylococcus aureus
[1] = test system: Escherichia coli ATCC 8739; assay type: cell-based; details: ATCC 8739
[2] = test system: Klebsiella pneumoniae ATCC 43816; assay type: cell-based; details: ATCC 43816
Experimental: (§1) The antimicrobial activities of the peptides were evaluated by determining their minimal inhibitory concentration (MIC) and minimal bactericidal concentration (MBC) values following reported protocols [20]. The tested microorganisms included seven Gram-negative bacterial strains (Escherichia coli ATCC 8739, E. coli ATCC-BAA 2340, E. coli NCTC 13846, Klebsiella pneumoniae ATCC 43816, K. pneumoniae ATCC BAA-2342, Pseudomonas aeruginosa ATCC 9027, Acinetobacter baumannii ATCC BAA-747), three Gram-positive bacterial strains (Staphylococcus aureus ATCC 6538, Enterococcus faecalis NCTC 12697, MRSA NCTC 12493, and the fungal strain Candida albicans ATCC 10231. For the assay, each bacterial strain was cultured overnight at 37 °C in 100 mL of medium in a flask. The cultures were then subcultured to reach the logarithmic growth phase and diluted to 5 × 10^5 CFU/mL. Peptide samples were serially diluted two-fold in microplates, with concentrations ranging from 128 μM to 1 μM. The diluted bacterial suspensions were mixed with the peptide solutions and incubated overnight at 37 °C. The MIC values were determined by measuring the absorbance of each well using a Synergy HT plate reader (Agilent, Cheshire, UK). For MBC determination, aliquots from wells showing no visible growth were inoculated onto agar plates to assess bacterial viability. Each experiment was repeated independently three times and conducted in three independent replicates.

[3] = test system: Pseudomonas aeruginosa ATCC 9027; assay type: cell-based
Experimental: as §1

Gram-positive bacteria = test: Geometric mean MIC and therapeutic index, Gram-positive; assay type: cell-based; details: geometric mean of MICs
[4] = test system: Staphylococcus aureus ATCC 6538; assay type: cell-based; details: ATCC 6538
[5] = test system: K. pneumoniae ATCC BAA-2342; assay type: cell-based, Klebsiella pneumoniae
Experimental: as §1

[6] = test system: Acinetobacter baumannii ATCC BAA-747; assay type: cell-based; details: ATCC BAA-747
[7] = test system: Enterococcus faecalis NCTC 12697; assay type: cell-based; details: NCTC 12697
E. coli (ATCC-BAA 2340) = assay type: cell-based, Escherichia coli; details: ATCC-BAA 2340
Experimental: The peptide sensitivity was determined in different salt- and serum-containing environments. Bacterial strains were prepared following the MIC detection protocol described previously. To evaluate peptide sensitivity under physiological conditions, various concentrations of salt ions (150 mM NaCl, 4.5 mM KCl, 2 mM CaCl2, 1 mM MgCl2, 8 µM ZnCl2, 6 µM NH4Cl, or 4 µM FeCl3) and serum (10% FBS) were prepared in McCartney bottles prior to the addition of bacterial suspensions. The subcultured bacterial suspensions were then introduced to these modified media conditions. For MIC determination, the treated bacterial suspensions were diluted and dispensed into 96-well plates containing peptide solutions at graded concentrations. This assay allowed for the detection of potential alterations in MIC values, serving as an indicator of peptide sensitivity under different physiological conditions. All experiments were independently repeated three times, each with three replicates.

E. coli ATCC BAA-2340 = assay type: cell-based, Escherichia coli
E. coli NCTC 13846 = assay type: cell-based, Escherichia coli
Gram-negative bacteria = test: Geometric mean MIC and therapeutic index, Gram-negative; assay type: cell-based; details: geometric mean of MICs

| Substance | HC10 (horse red blood cells) [µM] | MBC, MRSA (NCTC 12493) (MRSA NCTC 12493) [µM] | MIC, MRSA (NCTC 12493) (MRSA NCTC 12493) [µM] | MBC, E. coli (ATCC 8739) [1] [µM] | MIC, E. coli (ATCC 8739) [1] [µM] | MBC, K. pneumoniae (ATCC 43816) [2] [µM] | MIC, K. pneumoniae (ATCC 43816) [2] [µM] | MBC, P. aeruginosa (ATCC 9027) [3] | MIC, P. aeruginosa (ATCC 9027) [3] | GM MIC Gram-Positive (Gram-positive bacteria) [µM] | MBC, S. aureus (ATCC 6538) [4] [µM] | MIC, S. aureus (ATCC 6538) [4] [µM] | MBC, K. pneumoniae (ATCC BAA-2342) [5] [µM] | MIC, K. pneumoniae (ATCC BAA-2342) [5] [µM] | MBC, A. baumannii (ATCC BAA-747) [6] [µM] | MIC, A. baumannii (ATCC BAA-747) [6] [µM] | MBC, E. faecalis (NCTC 12697) [7] [µM] | MIC, E. faecalis (NCTC 12697) [7] [µM] | MBC, E. coli (ATCC BAA-2340) (E. coli ATCC BAA-2340) [µM] | MIC, E. coli (ATCC BAA-2340) (E. coli ATCC BAA-2340) [µM] | also measured |
| --- | --- | --- | --- | --- | --- | --- | --- | --- | --- | --- | --- | --- | --- | --- | --- | --- | --- | --- | --- | --- | --- |
| GLLSVLGSLKKIVPHVVPLIAKKL-NH2 [Caerin 1.1-LC 11K.22K] | 10.3 | 8 | 4 | 2 | 1 | 16 | 8 | 8 µM | 4 µM | 3.17 | 16 | 4 | 4 | 4 | 16 | 4 | 64 | 64 | 2 | 2 | MIC, Ca^2+ (E. coli (ATCC-BAA 2340)): 32 µM; MIC, Control (E. coli (ATCC-BAA 2340)): 4 µM; MIC, FBS (E. coli (ATCC-BAA 2340)): 16 µM; MIC, Fe^3+ (E. coli (ATCC-BAA 2340)): 8 µM; MIC, K^+ (E. coli (ATCC-BAA 2340)): 8 µM; MIC, Mg^2+ (E. coli (ATCC-BAA 2340)): 16 µM; MIC, NH4^+ (E. coli (ATCC-BAA 2340)): 8 µM; MIC, Na^+ (E. coli (ATCC-BAA 2340)): 8 µM; MBC, E. coli (NCTC 13846) (E. coli NCTC 13846): 8 µM; MIC, E. coli (NCTC 13846) (E. coli NCTC 13846): 4 µM |
| GLLSVLGSLKLIVPKVVPLIAEKL-NH2 [Caerin 1.1-LC PKVVP] | 25.8 | 8 | 8 | 8 | 4 | 32 | 16 | 32 µM | 8 µM | 12.14 | 32 | 16 | 32 | 8 | 32 | 32 | >128 | >128 | 4 | 2 | MBC, E. coli (NCTC 13846) (E. coli NCTC 13846): 4 µM; MIC, E. coli (NCTC 13846) (E. coli NCTC 13846): 2 µM |
| GLLSVLGSLKLIVPHLLPLIAEKL-NH2 [Caerin 1.1-LC PHLLP] | 1.6 | 4 | 4 | 8 | 4 | 8 | 8 | 64 µM | 32 µM | 6.56 | 4 | 4 | 16 | 8 | 8 | 4 | 32 | 32 | 4 | 4 | GM MIC Gram-Negative (Gram-negative bacteria): 8 µM; MBC, E. coli (NCTC 13846) (E. coli NCTC 13846): 4 µM; MIC, E. coli (NCTC 13846) (E. coli NCTC 13846): 4 µM |
| GLLSVLGSLKLIVPGGGPLIAEKL-NH2 [Caerin 1.1-LC PGGGP] | 256 | >128 | >128 | 128 | 128 | >128 | >128 | >128 µM | >128 µM | 256 | >128 | >128 | >128 | >128 | >128 | >128 | >128 | >128 | > 128 | 128 | GM MIC Gram-Negative (Gram-negative bacteria): 190.21 µM |
| GLLSVLGSLKLIVPRVVPLIAEKL-NH2 [Caerin 1.1-LC PRVVP] | 25.8 | 8 | 4 | 8 | 2 | 16 | 8 | 8/8 µM | 8/8 µM | 5.94 | 16 | 8 | 32 | 8 | 32 | 32 | >128 | >128 | 4 | 2 | MBC, E. coli (NCTC 13846) (E. coli NCTC 13846): 16 µM; MIC, E. coli (NCTC 13846) (E. coli NCTC 13846): 4 µM |
| GLLSVLGSLKKWVPHVVPLIAKKL-NH2 [Caerin 1.1-LC 11K.12K.12W] | 8.5 | 16 | 1 | 2 | 2 | 4 | 2 | 4 µM | 2 µM | 2 | 2 | 1 | 8 | 8 | 4 | 4 | 32 | 32 | 4 | 2 | MIC, Ca^2+ (E. coli (ATCC-BAA 2340)): 32 µM; MIC, Control (E. coli (ATCC-BAA 2340)): 4 µM; MIC, FBS (E. coli (ATCC-BAA 2340)): 8 µM; MIC, Fe^3+ (E. coli (ATCC-BAA 2340)): 4 µM; MIC, K^+ (E. coli (ATCC-BAA 2340)): 4 µM; MIC, Mg^2+ (E. coli (ATCC-BAA 2340)): 8 µM; MIC, NH4^+ (E. coli (ATCC-BAA 2340)): 4 µM; MIC, Na^+ (E. coli (ATCC-BAA 2340)): 4 µM; MBC, E. coli (NCTC 13846) (E. coli NCTC 13846): 4 µM; MIC, E. coli (NCTC 13846) (E. coli NCTC 13846): 2 µM |
| GLLSVLKSLKKIVPHVVPKIAEKL-NH2 [Caerin 1.1-LC 7.11.19K] | 46.5 | 8 | 8 | 2 | 2 | 4 | 4 | 4/4 µM | 4/4 µM | 3.28 | 4 | 4 | 4 | 4 | 8 | 4 | 128 | 128 | 2 | 2 | MIC, Ca^2+ (E. coli (ATCC-BAA 2340)): 64 µM; MIC, Control (E. coli (ATCC-BAA 2340)): 2 µM; MIC, FBS (E. coli (ATCC-BAA 2340)): 16 µM; MIC, Fe^3+ (E. coli (ATCC-BAA 2340)): 2 µM; MIC, K^+ (E. coli (ATCC-BAA 2340)): 2 µM; MIC, Mg^2+ (E. coli (ATCC-BAA 2340)): 4 µM; MIC, NH4^+ (E. coli (ATCC-BAA 2340)): 2 µM; MIC, Na^+ (E. coli (ATCC-BAA 2340)): 2 µM; MBC, E. coli (NCTC 13846) (E. coli NCTC 13846): 4 µM; MIC, E. coli (NCTC 13846) (E. coli NCTC 13846): 4 µM |
| GLLSVLGSLKLIVPHIIPLIAEKL-NH2 [Caerin 1.1-LC PHIIP] | 2.4 | 4 | 4 | 8 | 4 | 16 | 16 | 64 µM | 32 µM | 8 | 8 | 4 | 16 | 8 | 8 | 8 | >128 | >128 | 8 | 4 | MBC, E. coli (NCTC 13846) (E. coli NCTC 13846): 8 µM; MIC, E. coli (NCTC 13846) (E. coli NCTC 13846): 4 µM |
